Measurements reported in US5571804A, “Cephalosporin antibiotics” (priority 1993, dated 1996).

What was measured:
[1] = system: Serratia marcescens 1826E; assay: MIC, two-fold agar dilution; format: cell-based; details: Muller-Hinton agar, 37° C., 20 hours
[2] = system: Streptococcus laecalis 29212A; assay: MIC, two-fold agar dilution; format: cell-based; details: Muller-Hinton agar, 37° C., 20 hours
E. coli 3190Y = assay: MIC, two-fold agar dilution; format: cell-based; details: Muller-Hinton agar, 37° C., 20 hours
E. coli TEM3 3455E = assay: MIC, two-fold agar dilution; format: cell-based; details: Muller-Hinton agar, 37° C., 20 hours
E. coli TEM7 3457E = assay: MIC, two-fold agar dilution; format: cell-based; details: Muller-Hinton agar, 37° C., 20 hours
Staphylococcus aureus 77 = assay: MIC, two-fold agar dilution; format: cell-based; details: Muller-Hinton agar, 37° C., 20 hours
[3] = system: Staphylococcus aureus 6538P; assay: MIC, two-fold agar dilution; format: cell-based; details: Muller-Hinton agar, 37° C., 20 hours
[4] = system: Salmonella typhimurium 14028A; assay: MIC, two-fold agar dilution; format: cell-based; details: Muller-Hinton agar, 37° C., 20 hours
[5] = system: Klebsiella aerogenes K1 + 1082E; assay: MIC, two-fold agar dilution; format: cell-based; details: Muller-Hinton agar, 37° C., 20 hours
[6] = system: Staphylococcus aureus 241; assay: MIC, two-fold agar dilution; format: cell-based; details: Muller-Hinton agar, 37° C., 20 hours
E. coli 10536 = assay: MIC, two-fold agar dilution; format: cell-based; details: Muller-Hinton agar, 37° C., 20 hours
E. coli 851E = assay: MIC, two-fold agar dilution; format: cell-based; details: Muller-Hinton agar, 37° C., 20 hours
Enterobacter cloacae P99 = assay: MIC, two-fold agar dilution; format: cell-based; details: Muller-Hinton agar, 37° C., 20 hours
[7] = pharmakinetic variables in SD rats; details: rat, in vivo, iv, 20 mg/kg
Protocol: The pharmakinetic variables were determined using SD rats (.male.) of a body weight of 230±10g as follows. The "S" compound of each of the Examples was injected to femoral vein of 4-5 rats by 20mg/Kg and then blood was collected from femoral artery in 1, 2.5, 5, 10, 20, 40, 60 and 120 min.

[8] = system: Acinetobacter calcoaceticus 15473A; assay: MIC, two-fold agar dilution; format: cell-based; details: Muller-Hinton agar, 37° C., 20 hours
Proteus vularis 6059A = assay: MIC, two-fold agar dilution; format: cell-based; details: Muller-Hinton agar, 37° C., 20 hours
[9] = system: Staphylococcus aureus giorgio; assay: MIC, two-fold agar dilution; format: cell-based; details: Muller-Hinton agar, 37° C., 20 hours
[10] = system: Pseudomonas aeruginosa 6065; assay: MIC, two-fold agar dilution; format: cell-based; details: Muller-Hinton agar, 37° C., 20 hours
[11] = system: Pseudomonas aeruginosa 1912E; assay: MIC, two-fold agar dilution; format: cell-based; details: Muller-Hinton agar, 37° C., 20 hours
E. coli TEM9 2639E = assay: MIC, two-fold agar dilution; format: cell-based; details: Muller-Hinton agar, 37° C., 20 hours
[12] = system: Klebsiella aerogenes SHV-1 1976E; assay: MIC, two-fold agar dilution; format: cell-based; details: Muller-Hinton agar, 37° C., 20 hours
[13] = system: Staphylococcus epidermidis 887E; assay: MIC, two-fold agar dilution; format: cell-based; details: Muller-Hinton agar, 37° C., 20 hours
E. coli TEM5 3739E = assay: MIC, two-fold agar dilution; format: cell-based; details: Muller-Hinton agar, 37° C., 20 hours
E. coli TEM1 1193E = assay: MIC, two-fold agar dilution; format: cell-based; details: Muller-Hinton agar, 37° C., 20 hours
[14] = system: Enterobacter cloacae IND + VE 1194E; assay: MIC, two-fold agar dilution; format: cell-based; details: Muller-Hinton agar, 37° C., 20 hours
[15] = system: Citrobacter diversus 2046E; assay: MIC, two-fold agar dilution; format: cell-based; details: Muller-Hinton agar, 37° C., 20 hours
[16] = system: Pseudomonas aeruginosa 10145; assay: MIC, two-fold agar dilution; format: cell-based; details: Muller-Hinton agar, 37° C., 20 hours

Row | Structure (SMILES) | minimal inhibitory concentration (MIC) [1] | minimal inhibitory concentration (MIC) [2] | minimal inhibitory concentration (MIC) (E. coli 3190Y) | minimal inhibitory concentration (MIC) (E. coli TEM3 3455E) | minimal inhibitory concentration (MIC) (E. coli TEM7 3457E) | minimal inhibitory concentration (MIC) (Staphylococcus aureus 77) | minimal inhibitory concentration (MIC) [3] | minimal inhibitory concentration (MIC) [4] | minimal inhibitory concentration (MIC) [5] | minimal inhibitory concentration (MIC) [6] | minimal inhibitory concentration (MIC) (E. coli 10536) | minimal inhibitory concentration (MIC) (E. coli 851E) | minimal inhibitory concentration (MIC) (Enterobacter cloacae P99) | AUC at 2 h [7] [ng·h/mL] | half-life [7] [min] | minimal inhibitory concentration (MIC) [8] | minimal inhibitory concentration (MIC) (Proteus vularis 6059A) | minimal inhibitory concentration (MIC) [9] | minimal inhibitory concentration (MIC) [10] | minimal inhibitory concentration (MIC) [11] | further results
1 | Cc1c(N)nc(SCC2=C(C(=O)O)N3C(=O)[C@@H](NC(=O)/C(=N\O[C@H](C(=O)O)c4ccc(O)c(O)c4)c4csc(N)n4)[C@H]3SC2)nc1N [Compound I-2S, 7-[(Z)-2-(aminothiazol-4-yl)-2-(α-carboxyl-3,4-dihydroxybenzyloxyimino)acetamido]-3-(4,6-diamino-5-methylpyrimidine-2-yl)thiomethyl-3-cephem-4-carboxylate] | 0.25 | 4 | 0.063 | 0.016 | ≤ 0.008 | 4 | 1 | 0.016 | 0.031 | 64 | ≤ 0.008 | 0.031 | 8 | 54100 | 55 | 0.25 | 0.13 | 1 | 0.25 | 0.5 | minimal inhibitory concentration (MIC) (E. coli TEM9 2639E): 0.25; minimal inhibitory concentration (MIC) [12]: 0.13; minimal inhibitory concentration (MIC) [13]: 16; minimal inhibitory concentration (MIC) (E. coli TEM5 3739E): 0.063; minimal inhibitory concentration (MIC) (E. coli TEM1 1193E): 0.031; minimal inhibitory concentration (MIC) [14]: 4; minimal inhibitory concentration (MIC) [15]: 0.016; minimal inhibitory concentration (MIC) [16]: 0.13
2 | Nc1ccnc(SCC2=C(C(=O)O)N3C(=O)[C@@H](NC(=O)/C(=N\O[C@H](C(=O)O)c4ccc(O)c(O)c4)c4csc(N)n4)[C@H]3SC2)n1 [Compound I-3S, 7-[(Z)-2-(aminothiazol-4-yl)-2-(α-carboxyl-3,4-dihydroxybenzyloxyimino)acetamido]-3-(4-amino-pyrimidine-2-yl) thiomethyl-3-cephem-4-carboxylate] | 0.25 | 4 | 0.031 | 0.016 | 0.063 | 4 | 2 | 0.016 | 0.031 | 128 | ≤ 0.008 | 0.063 | 8 | 57900 | 58 | 0.13 | 0.13 | 1 | 0.5 | 0.25 | minimal inhibitory concentration (MIC) (E. coli TEM9 2639E): 0.25; minimal inhibitory concentration (MIC) [12]: 0.13; minimal inhibitory concentration (MIC) [13]: 32; minimal inhibitory concentration (MIC) (E. coli TEM5 3739E): 0.063; minimal inhibitory concentration (MIC) (E. coli TEM1 1193E): 0.031; minimal inhibitory concentration (MIC) [14]: 2; minimal inhibitory concentration (MIC) [15]: 0.031; minimal inhibitory concentration (MIC) [16]: 0.13
3 | Nc1nc(/C(=N/O[C@H](C(=O)O)c2ccc(O)c(O)c2)C(=O)N[C@@H]2C(=O)N3C(C(=O)O)=C(CSc4nc(N)c5c(n4)CCC5)CS[C@H]23)cs1 [Compound I-4S, 7-[(Z)-2-(aminothiazol-4-yl)-2-(α-carboxyl-3,4-dihydroxybenzyioxyimino)acetamido]-3-(4-amino-5,6-cyclopentapyrimidine-2-yl)thiomethyl-3-cephem-4-carboxylate] | 0.25 | 4 | 0.031 | 0.016 | ≤ 0.008 | 8 | 1 | 0.016 | 0.031 | 64 | ≤ 0.008 | 0.031 | 8 | 55500 | 57 | 0.13 | 0.13 | 1 | 0.13 | 0.25 | minimal inhibitory concentration (MIC) (E. coli TEM9 2639E): 0.25; minimal inhibitory concentration (MIC) [12]: 0.13; minimal inhibitory concentration (MIC) [13]: 32; minimal inhibitory concentration (MIC) (E. coli TEM5 3739E): 0.063; minimal inhibitory concentration (MIC) (E. coli TEM1 1193E): 0.063; minimal inhibitory concentration (MIC) [14]: 2; minimal inhibitory concentration (MIC) [15]: 0.063; minimal inhibitory concentration (MIC) [16]: 0.13
4 | Nc1nc(/C(=N/O[C@H](C(=O)O)c2ccc(O)c(O)c2)C(=O)N[C@@H]2C(=O)N3C(C(=O)O)=C(CSc4nc(N)c(N)c(N)n4)CS[C@H]23)cs1 [Compound I-5S, 7-[(Z)-2-(aminothiazol-4-yl)-2-(α-carboxy-3,4-dihydroxybenzyloxyimino)acetamido]-3-(4,5,6-triaminopyrimidine-2-yl)thiomethyl-3-cephem-4-carboxylate] | 0.25 | 4 | 0.031 | 0.016 | ≤ 0.008 | 8 | 2 | 0.016 | 0.031 | 64 | ≤ 0.008 | 0.031 | 8 | 59500 | 59 | 0.13 | 0.13 | 1 | 0.25 | 0.25 | minimal inhibitory concentration (MIC) (E. coli TEM9 2639E): 0.25; minimal inhibitory concentration (MIC) [12]: 0.13; minimal inhibitory concentration (MIC) [13]: 32; minimal inhibitory concentration (MIC) (E. coli TEM5 3739E): 0.063; minimal inhibitory concentration (MIC) (E. coli TEM1 1193E): 0.031; minimal inhibitory concentration (MIC) [14]: 2; minimal inhibitory concentration (MIC) [15]: 0.063; minimal inhibitory concentration (MIC) [16]: 0.13
5 | Nc1cc(SCC2=C(C(=O)O)N3C(=O)[C@@H](NC(=O)/C(=N\O[C@H](C(=O)O)c4ccc(O)c(O)c4)c4csc(N)n4)[C@H]3SC2)ncn1 [Compound I-7S, 7[-(Z)-2-(aminothiazol-4-yl)-2-(α-carboxy-3,4-dihydroxybenzyloxyimino)acetamido]-3-(6-amino-pyrimidine-4-yl)thiomethyl-3cephem-4-carboxylate] | 0.25 | 2 | 0.031 | 0.016 | 0.016 | 4 | 2 | 0.016 | 0.063 | 64 | ≤ 0.008 | 0.063 | 8 | 60000 | 59 | 0.13 | 0.25 | 1 | 0.5 | 0.25 | minimal inhibitory concentration (MIC) (E. coli TEM9 2639E): 0.13; minimal inhibitory concentration (MIC) [12]: 0.25; minimal inhibitory concentration (MIC) [13]: 32; minimal inhibitory concentration (MIC) (E. coli TEM5 3739E): 0.063; minimal inhibitory concentration (MIC) (E. coli TEM1 1193E): 0.063; minimal inhibitory concentration (MIC) [14]: 2; minimal inhibitory concentration (MIC) [15]: 0.063; minimal inhibitory concentration (MIC) [16]: 0.25
